In US7425418B2, “Compounds that modulate processes associated with IgE production” (Rigel Pharmaceuticals, Inc., priority 2002, dated 2008):

Assays:
[1] = system: germline ε promoter (A5T4 reporter line); assay: Retinoids contacted with IL-4 stimulated A5T4 reporter cells, inhibition of germline ε transcription; assay type: cell-based, human; details: 0.03 μM, 0.3 μM, 3 μM and 30 μM, FIG. 12
Protocol: IL-4 stimulated A5T4 reporter cells were contacted with varying concentrations of retinoids a-tRA, 13-cRA and 9-cRA (0.03 μM, 0.3 μM, 3 μM and 30 μM) as assessed for inhibition of germline ε transcription. DMSO and a compound known to inhibit germline ε transcription were tested as controls.

[2] = system: IgE production; details: in vitro assays, literature; cited from earlier work
[3] = system: germline ε transcription; details: in vitro assays, literature; cited from earlier work
[4] = system: IL-4 inducible germline ε promoter (A5T4 reporter cell line); assay: A5T4 reporter line screening assay: IL-4 induced germline ε promoter driving HBEGF2a/GFP reporter, peptide expressed retrovirally as BFP fusion, FACS; assay type: cell-based, human; details: mutants categorised relative to CL06wt
Text: Peptide CL06wt was identified by screening a retroviral library of random peptide 20-mers for the ability to inhibit IL-4 induced germline ε transcription using the HBEGF2a/diphtheria dual reporter phenotypic screening system described in WO 01/31232. To construct the random library, A5T4 reporter cells (described in more detail below) were infected with an infectious retroviral library of random peptide 20-mers (prepared as described in WO 97/27213; see also WO 01/34806 at page 39, line 36 through page 40, line 19). The retroviral vector used includes a gene encoding blue fluorescent protein (BFP) fused upstream of the region encoding the random peptide via a linker region encoding an α-helical peptide linker (expression fusion product is referred to as “BFP-peptide”). Expression of the BFP-peptide product is controlled by a promoter sensitive to the tetracyline-regulated transactivator such that expression of the BFP-peptide regulated by tetracycline (Tet) or doxycycline (Dox). […]
Following infection, the library was enriched for cells expressing peptides that inhibit IL-4 induced ε transcription as generally outlined in the top half of FIG. 3 and sorted by FACS into single cell clones. […] After 5 days, both populations were stimulated with IL-4 (final conc. 60 U/mL; PeptroTech, Inc.) and, after 3 more days, both populations were analyzed by FACS to measure BFP and GFP fluorescence. […]

[5] = molecular target: T1, human RXR-β (hRXR-β) (Homo sapiens, UniProt P28702); assay: β-galactosidase yeast two-hybrid (YTH) interaction assay; assay type: binding
T1 construct: expressed in transfected cells; prey cDNA from a library of the A5T4 reporter cell line (BJAB B-cells)
T1 sequence (P28702 1-533): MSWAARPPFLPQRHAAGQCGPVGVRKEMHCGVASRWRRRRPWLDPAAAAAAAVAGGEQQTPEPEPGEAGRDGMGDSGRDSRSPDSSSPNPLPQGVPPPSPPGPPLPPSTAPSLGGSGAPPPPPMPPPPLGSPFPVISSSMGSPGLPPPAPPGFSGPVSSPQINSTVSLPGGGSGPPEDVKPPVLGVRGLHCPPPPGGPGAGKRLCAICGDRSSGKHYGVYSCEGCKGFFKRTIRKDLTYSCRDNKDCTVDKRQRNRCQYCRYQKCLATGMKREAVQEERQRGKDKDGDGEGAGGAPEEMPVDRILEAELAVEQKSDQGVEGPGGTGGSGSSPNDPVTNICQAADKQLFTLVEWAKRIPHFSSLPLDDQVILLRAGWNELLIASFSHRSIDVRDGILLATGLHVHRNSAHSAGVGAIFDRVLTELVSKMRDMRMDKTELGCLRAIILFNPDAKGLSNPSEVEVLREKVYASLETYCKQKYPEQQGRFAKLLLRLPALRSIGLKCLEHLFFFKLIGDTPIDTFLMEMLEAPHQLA
Protocol: Potential binding partners for peptide CL06wt were identified in a β-galactosidase yeast two-hybrid (YTH) assay using peptide CL06wt as bait and a cDNA library constructed from the A5T4 reporter cell line as prey. Binding was assessed by β-galactosidase quantification using BetaFluor (Novagen) as a substrate. A negative interaction control (no cDNA fused downstream of the GAL4 activation domain sequence) was also run. A general outline of the YTH assay is illustrated in FIG. 5A. Following clustering, filtering to remove non-specific bait hits (e.g., GFP and BFP), singletons and clusters recognized by 10 or more cDNA baits (based upon historical YTH assays), and prioritization, four prey clones were identified as hits, designated CL06-nonstim-7, CL06-stim-14, CL06-stim-15 and CL06-stim-2.
The interaction of CL06wt peptide and its mutants with the clones identified as potential targets for the peptide CL06wt was then quantified in a β-galactosidase YTH assay. The YTH assay was performed in the manner described above. A general outline of this YTH assay is illustrated in FIG. 5B. […]
The interaction of these IOF and LOF mutants with different polypeptides encoded by the clones CL06-nonstim-7, CL06-stim-14, CL06-stim-15 and CL06-stim-2 were quantified using the YTH assay described above. […]

[6] = system: ST486 endogenous α promoter; assay: TAQMAN assay of endogenous germline α promoter transcription in TGF-β stimulated ST486 cells; assay type: cell-based; details: TGF-β 40 ng/ml, average of 3 values, p=0.6867
Protocol: The ability of peptide CL06wt to inhibit transcription of an endogenous germline ε promoter was confirmed using a TAQMAN® assay (Roche Molecular, Alameda, Calif.). Briefly, A5T4 cells were infected with retrovirus capable of expressing peptide CL06wt (prepared as described above). The cells were sorted for BFP^+ to select for infected cells. Infected cells were divided into two populations. One population was exposed to Dox (10 ng/ml). Both populations were stimulated with IL-4 (60 U/ml). After 3 days, the cells were pelleted and the pellets assayed for ε promoter transcription using a TAQMAN assay performed as described in Applied Biosystems Protocol 4310299 (available at http:www.appliedbiosystems.com). The primers and probe, which are specific for the transcription product driven by the A5T4 endogenous ε promoter, were as follows (the probe was labeled at the 5′-end with Fam and at the 3′-end with Tamra):
The assay was similar to that described in the immediately preceding section, except that ST486 cells (ATCC # CRL-1647) engineered to express the tetracycline-regulated transactivator were infected and the infected cells were stimulated with TGF-β (40 ng/ml; Peprotech). The primers and probe, which are specific for the transcription product driven by the ST486 endogenous α promoter, were as follows (the probe was labeled at the 5′-end with Fam and at the 3′-end with Tamra): […]

[7] = molecular target: T2, human retinoid X receptor beta (polypeptide encoded by prey clone CL06-stim-2) (human, UniProt P28702 1-533, limits assumed); assay: cell-based or functional assay
T2 sequence (looked up): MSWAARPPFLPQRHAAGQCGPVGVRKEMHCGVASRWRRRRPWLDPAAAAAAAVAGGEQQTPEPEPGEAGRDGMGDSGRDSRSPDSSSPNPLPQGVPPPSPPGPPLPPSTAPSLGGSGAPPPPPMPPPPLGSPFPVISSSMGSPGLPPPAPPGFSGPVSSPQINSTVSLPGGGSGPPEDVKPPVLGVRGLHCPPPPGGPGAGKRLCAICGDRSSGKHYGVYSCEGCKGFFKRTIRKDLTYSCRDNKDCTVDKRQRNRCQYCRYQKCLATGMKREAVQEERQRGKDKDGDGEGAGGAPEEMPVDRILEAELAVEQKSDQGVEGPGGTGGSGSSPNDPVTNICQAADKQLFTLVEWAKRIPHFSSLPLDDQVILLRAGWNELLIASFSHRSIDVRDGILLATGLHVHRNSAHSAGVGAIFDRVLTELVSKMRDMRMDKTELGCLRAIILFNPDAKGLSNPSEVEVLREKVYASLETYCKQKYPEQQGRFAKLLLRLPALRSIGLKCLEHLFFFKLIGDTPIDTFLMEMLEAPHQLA

[8] = molecular target: T2, human retinoid X receptor beta …; assay: beta-galactosidase yeast two-hybrid; CL06LC is a loss of function (L) mutant, hence category L (loss of interaction) with CL06-stim-2
[9] = molecular target: T2, human retinoid X receptor beta …; assay: beta-galactosidase yeast two-hybrid; CL06SY1 is a loss of function (L) mutant, hence category L (loss of interaction) with CL06-stim-2
[10] = molecular target: T2, human retinoid X receptor beta …; assay: cell-based or functional assay; remark: listed apart in the source

CC1=C(/C=C/C(C)=C\C=C\C(C)=C\C(=O)O)C(C)(C)CCC1 [Peptide 9-cRA, 9-cis RA]
inhibition of germline ε transcription [1]: inhibited germline ε transcription in a dose-dependent manner

CC1=C(/C=C/C(C)=C/C=C/C(C)=C\C(=O)O)C(C)(C)CCC1 [Peptide 13-cRA, 13-cis-RA]
inhibition of germline ε transcription [1]: inhibited germline ε transcription in a dose-dependent manner
inhibition of IgE production [2]: inhibit both IgE production and germline ε transcription in a dose-dependent manner
inhibition of germline ε transcription [3]: inhibit both IgE production and germline ε transcription in a dose-dependent manner

CC1=C(/C=C/C(C)=C/C=C/C(C)=C/C(=O)O)C(C)(C)CCC1 [a-tRA, all-trans RA]
inhibition of germline ε transcription [1]: inhibited germline ε transcription in a dose-dependent manner
inhibition of IgE production [2]: inhibit both IgE production and germline ε transcription in a dose-dependent manner
inhibition of germline ε transcription [3]: inhibit both IgE production and germline ε transcription in a dose-dependent manner

AALCSYAHSYAA [CL06MS, dual alanine mutant of CL06wt]
functional category based on reporter ratio [4]: IOF (An increase of function mutant (IOF) shows a >50% increase in reporter function)
binding to hRXR-β in yeast two hybrid interaction assay [5]: found to bind

MSLCSYAHSYAA [CL06wt, 12-residue peptide identified from a retroviral random peptide library, expressed as BFP-peptide fusion]
endogenous a inhibition ratio [6]: 0.93
binding to hRXR-β in yeast two hybrid interaction assay [5]: found to bind

AALCSYAHSYAA [peptide CL06MS (AALCSYAHSYAA)]
Reporter Ratio (A5T4 reporter line, IL-4 induced germline ε transcription) [7]: 1.56

B1: peptide CL06LC (MSAASYAHSYAA) (peptide)
peptide: MSAASYAHSYAA
notes: Dual alanine mutant of CL06wt (L, C to A, A); Yeast two-hybrid bait fusion and BFP fusion as for CL06wt
Reporter Ratio (A5T4 reporter line, IL-4 induced germline ε transcription) [7]: 1.06
binding result [8]: no binding

B2: peptide CL06SY1 (MSLCAAAHSYAA) (peptide)
peptide: MSLCAAAHSYAA
notes: Dual alanine mutant of CL06wt (first S, Y to A, A); Yeast two-hybrid bait fusion and BFP fusion as for CL06wt
Reporter Ratio (A5T4 reporter line, IL-4 induced germline ε transcription) [7]: 1.09
binding result [9]: no binding

MSLCSYAHSYAA [peptide CL06wt (MSLCSYAHSYAA)]
endogenous ε inhibition ratio (TAQMAN assay, +IL-4/-Dox to +IL-4/+Dox) [10]: 1.37
Reporter Ratio (A5T4 reporter line, IL-4 induced germline ε transcription) [7]: 1.3
